# Reference: patent US4604239A, “Antibiotics” (Eli Lilly and Company, priority 1985, dated 1986)
# Like-named read-outs stand apart in the source and are kept apart here.
# Experiments:
# Fusobacterium symbiosum = test: agar-dilution MIC; type: cell-based; details: Fusobacterium symbiosum 1470; Table 14
# [1] = test system: Staphylococcus epidermidis; test: agar-dilution MIC; type: cell-based
# Source text: (§1) The agar-dilution procedure described by the International Collaborative study (ICS) group was used to determine the minimum inhibitory concentrations (MIC's).
# Streptococcus pyogenes = test: agar-dilution MIC; type: cell-based; details: Streptococcus pyogenes C203; Table 17
# Source text: as §1
# Bacteroides fragilis = test: agar-dilution MIC; type: cell-based
# Source text: as §1
# [2] = test system: Streptococcus sp. (Group D); test: agar-dilution MIC; type: cell-based
# Source text: as §1
# Streptococcus pneumoniae = test: agar-dilution MIC; type: cell-based
# Source text: as §1
# [3] = test system: Bacteroides melaninogenicus; test: agar-dilution MIC; type: cell-based; details: Bacteroides melaninogenicus 2736; Table 14
# [4] = test system: Bacteroides thetaiotaomicron; type: cell-based
# Source text: as §1
# Clostridium perfringens = type: cell-based; details: Clostridium perfringens 81; Table 14
# Clostridium difficile = type: cell-based
# S. pyogenes = test: experimental bacterial infection in mice; type: in vivo
# Peptococcus prevoti [5] = test: agar-dilution MIC; type: cell-based
# [6] = test system: Fusobacterium necrophorum; test: agar-dilution MIC; type: cell-based; details: Fusobacterium necrophorum 6054A; Table 14
# [7] = test system: Peptococcus asaccharolyticus; test: agar-dilution MIC; type: cell-based
# Procedure: (§2) The MIC values were determined by the agar-dilution method, and are recorded in Table 15, which follows.
# Peptococcus constellatus = test: agar-dilution MIC; type: cell-based; details: Pc. constellatus 1468; Table 15
# Procedure: as §2
# Peptococcus prevoti [8] = test: agar-dilution MIC; type: cell-based; details: Table 15
# Procedure: as §2
# Peptococcus magnus = test: agar-dilution MIC; type: cell-based; details: Pc. magnus 1477; Table 15
# Procedure: as §2
# Staph. aureus = test: experimental bacterial infection in mice; type: in vivo; details: two doses subcutaneously
# Procedure: All of the A41030 factors tested have shown in vivo antimicrobial activity against experimental bacterial infections. When two doses of test compound were administered subcutaneously to mice in illustrative infections, the activity observed is measured as an ED50 value [effective dose in mg./kg. to protect fifty percent of the test animals: See Warren Wick, et al., J. Bacteriol. 81, 233-235 (1961)].
# [9] = test system: Peptostreptococcus intermedius; test: agar-dilution MIC; type: cell-based
# Hemophilus influenzae = test: agar-dilution MIC; type: cell-based
# Staphylococcus aureus = test: agar-dilution MIC; type: cell-based
# solubility = type: physicochemical
# Bacteroides corrodens = test: agar-dilution MIC; type: cell-based; details: Bacteroides corrodens 1874; Table 14
smiles,measurement,setting,value
N[C@H]1C(=O)N[C@@H]2Cc3ccc(c(Cl)c3)Oc3cc4cc(c3O)Oc3ccc(cc3Cl)[C@@H](O)[C@@H]3NC(=O)C(NC(=O)[C@@H]4NC(=O)[C@@H](NC2=O)c2cc(O)cc(c2)Oc2cc1ccc2O)c1ccc(O)c(c1)-c1c(O)cc(O)cc1[C@@H](C(=O)O)NC3=O [A41030 factor B],MIC,Fusobacterium symbiosum,1.0 mg/L
same,MIC,"[1]; Staphylococcus epidermidis 219, end point after 24 hours, Table 18",0.03 mg/L
same,MIC,"[1]; Staphylococcus epidermidis 269, end point after 24 hours, Table 18",0.03 mg/L
same,MIC,"[1]; Staphylococcus epidermidis 270, end point after 24 hours, Table 18",0.06 mg/L
same,MIC,"[1]; Staphylococcus epidermidis 285, end point after 24 hours, Table 18",0.03 mg/L
same,MIC,"[1]; Staphylococcus epidermidis EPI2, Table 17",0.5 mg/L
same,MIC,Streptococcus pyogenes,0.25 mg/L
same,MIC,"Bacteroides fragilis; B. fragilis 2, 24-hour, Table 12",32 mg/L
same,MIC,"Bacteroides fragilis; B. fragilis 9, 24-hour, Table 12",32 mg/L
same,MIC,"Bacteroides fragilis; B. fragilis 103, 24-hour, Table 12",32 mg/L
same,MIC,"Bacteroides fragilis; B. fragilis 104, 24-hour, Table 12",32 mg/L
same,MIC,"Bacteroides fragilis; B. fragilis 106, 24-hour, Table 12",32 mg/L
same,MIC,"Bacteroides fragilis; B. fragilis 107, 24-hour, Table 12",32 mg/L
same,MIC,"Bacteroides fragilis; B. fragilis 108, 24-hour, Table 12",32 mg/L
same,MIC,"Bacteroides fragilis; B. fragilis 110, 24-hour, Table 12",64 mg/L
same,MIC,"Bacteroides fragilis; B. fragilis 111, 24-hour, Table 12",32 mg/L
same,MIC,"Bacteroides fragilis; B. fragilis 112, 24-hour, Table 12",32 mg/L
same,MIC,"Bacteroides fragilis; B. fragilis 113, 24-hour, Table 12",32 mg/L
same,MIC,"Bacteroides fragilis; B. fragilis 1451, 24-hour, Table 12",64 mg/L
same,MIC,"Bacteroides fragilis; B. fragilis 1470, 24-hour, Table 12",64 mg/L
same,MIC,"Bacteroides fragilis; B. fragilis 1877, 24-hour, Table 12",32 mg/L
same,MIC,"Bacteroides fragilis; B. fragilis 9032, 24-hour, Table 12",32 mg/L
same,MIC,"Bacteroides fragilis; Bacteroides fragilis 111, Table 14",64 mg/L
same,MIC,"Bacteroides fragilis; Bacteroides fragilis 1877, Table 14",32 mg/L
same,MIC,"Bacteroides fragilis; Bacteroides fragilis 1936B, Table 14",32 mg/L
same,MIC,"[2]; Streptococcus sp. Group D 2041, end point after 24 hours, Table 18",0.5 mg/L
same,MIC,"[2]; Streptococcus sp. Group D 2058, end point after 24 hours, Table 18",0.5 mg/L
same,MIC,"[2]; Streptococcus sp. Group D 8043, end point after 24 hours, Table 18",0.25 mg/L
same,MIC,"[2]; Streptococcus sp. Group D 9901, end point after 24 hours, Table 18",1 mg/L
same,MIC,"[2]; Streptococcus sp. Group D 9960, Table 17",1 mg/L
same,MIC,"[2]; Streptococcus sp. Group D 9960, end point after 24 hours, Table 18",0.5 mg/L
same,MIC,"[2]; Streptococcus sp. Group D 12253F, end point after 24 hours, Table 18",0.5 mg/L
same,MIC,"[2]; Streptococcus sp. Group D Mx161, end point after 24 hours, Table 18",0.25 mg/L
same,MIC,"[2]; Streptococcus sp. Group D X66, Table 17",1 mg/L
same,MIC,"[2]; Streptococcus sp. Group D X66, end point after 24 hours, Table 18",0.25 mg/L
same,MIC,"Streptococcus pneumoniae; Streptococcus pneumoniae B1-438, end point after 24 hours, Table 18",0.5 mg/L
same,MIC,"Streptococcus pneumoniae; Streptococcus pneumoniae Park I, Table 17",0.5 mg/L
same,MIC,[3],4 mg/L
same,MIC,"[4]; B. thetaiotaomicron 1438, 24-hour, Table 12",32 mg/L
same,MIC,"[4]; Bacteroides thetaiotaomicron 1438, Table 14",32 mg/L
same,MIC,Clostridium perfringens,0.5 mg/L
same,MIC,"Clostridium difficile; Clostridium difficile 78, Table 16",0.5 mg/L
same,MIC,"Clostridium difficile; Clostridium difficile 107B, Table 16",0.5 mg/L
same,MIC,"Clostridium difficile; Clostridium difficile 111F, Table 16",1.0 mg/L
same,MIC,"Clostridium difficile; Clostridium difficile 1153, Table 16",1.0 mg/L
same,MIC,"Clostridium difficile; Clostridium difficile 2634, Table 16",1.0 mg/L
same,MIC,"Clostridium difficile; Clostridium difficile 2994, Table 14",32 mg/L
same,MIC,"Clostridium difficile; Clostridium difficile 3424-5B, Table 16",1.0 mg/L
same,MIC,"Clostridium difficile; Clostridium difficile 3816, Table 16",1.0 mg/L
same,MIC,"Clostridium difficile; Clostridium difficile 3950D, Table 16",1.0 mg/L
same,MIC,"Clostridium difficile; Clostridium difficile 6890, Table 16",1.0 mg/L
same,MIC,"Clostridium difficile; Clostridium difficile 8484, Table 16",1.0 mg/L
same,MIC,"Clostridium difficile; Clostridium difficile A-194, Table 16",1.0 mg/L
same,MIC,"Clostridium difficile; Clostridium difficile A-195, Table 16",1.0 mg/L
same,MIC,"Clostridium difficile; Clostridium difficile A-196, Table 16",1.0 mg/L
same,MIC,"Clostridium difficile; Clostridium difficile A-279, Table 16",1.0 mg/L
same,MIC,"Clostridium difficile; Clostridium difficile A-280, Table 16",0.5 mg/L
same,MIC,"Clostridium difficile; Clostridium difficile A-281, Table 16",1.0 mg/L
same,MIC,"Clostridium difficile; Clostridium difficile WAL-2112, Table 16",1.0 mg/L
same,MIC,"Clostridium difficile; Clostridium difficile WAL-3657, Table 16",1.0 mg/L
same,MIC,"Clostridium difficile; Clostridium difficile WAL-4268, Table 16",0.5 mg/L
same,ED50,"S. pyogenes; S. pyogenes infection in mice, two doses subcutaneously",1.4 mg/kg
same,in vivo oral activity,"S. pyogenes; against S. pyogenes in mice, oral",> 300 mg./kg. X 2
same,MIC,"Peptococcus prevoti [5]; Pc. prevoti 1281, Table 15",0.5 mg/L
same,MIC,"Peptococcus prevoti [5]; Peptococcus prevoti 1281, Table 14",≤ 0.25 mg/L
same,MIC,[6],8 mg/L
same,MIC,"[7]; Pc. asaccharolyticus 1344, Table 15",0.5 mg/L
same,MIC,"[7]; Peptococcus asaccharolyticus 1302, Table 14",≤ 0.25 mg/L
same,MIC,Peptococcus constellatus,0.5 mg/L
same,MIC,Peptococcus prevoti [8]; Pc. prevoti 1293,0.25 mg/L
same,MIC,Peptococcus prevoti [8]; Pc. prevoti 1407,0.5 mg/L
same,MIC,Peptococcus magnus,0.25 mg/L
same,ED50,Staph. aureus,< 0.43 mg/kg
same,MIC,"[9]; Peptostreptococcus intermedius 1264, Table 14",0.5 mg/L
same,MIC,"[9]; Ps. intermedius 1264, Table 15",≤ 0.03 mg/L
same,MIC,"[9]; Ps. intermedius 1524, Table 15",0.25 mg/L
same,MIC,"[9]; Ps. intermedius 1624, Table 15",0.5 mg/L
same,MIC,"Hemophilus influenzae; Haemophilus influenzae 76, end point after 24 hours, Table 18",4 mg/L
same,MIC,"Hemophilus influenzae; Haemophilus influenzae 251, Table 17",2 mg/L
same,MIC,"Hemophilus influenzae; Haemophilus influenzae 312, end point after 24 hours, Table 18",4 mg/L
same,MIC,"Hemophilus influenzae; Haemophilus influenzae 4842, end point after 24 hours, Table 18",4 mg/L
same,MIC,"Hemophilus influenzae; Haemophilus influenzae 16836, end point after 24 hours, Table 18",4 mg/L
same,MIC,"Hemophilus influenzae; Haemophilus influenzae Bond, end point after 24 hours, Table 18",4 mg/L
same,MIC,"Hemophilus influenzae; Haemophilus influenzae Brun, Table 17",8 mg/L
same,MIC,"Hemophilus influenzae; Haemophilus influenzae C.L., end point after 24 hours, Table 18",8 mg/L
same,MIC,"Hemophilus influenzae; Haemophilus influenzae Mx366, end point after 24 hours, Table 18",4 mg/L
same,MIC,"Hemophilus influenzae; Haemophilus influenzae Mx371, end point after 24 hours, Table 18",4 mg/L
same,MIC,"Staphylococcus aureus; Staphylococcus aureus 3055, end point after 24 hours, Table 18",0.06 µg/mL
same,MIC,"Staphylococcus aureus; Staphylococcus aureus V138, end point after 24 hours, Table 18",0.06 µg/mL
same,MIC,Staphylococcus aureus; in µg/mL,0.25
same,solubility (solvents),solubility,soluble in the same solvents as factor A
same,MIC,Bacteroides corrodens,64 mg/L
